The values below come from patent US11878049B1, “Mitapivat therapy and modulators of cytochrome P450” (Agios Pharmaceuticals, Inc., priority 2019, dated 2024).

Data set [1] addresses T1, CYP2C9 (Homo sapiens, UniProt P11712). In words: CYP enzyme inhibition. The data set is classed as in vitro ADME.
For a further data set, the target named is CYP2C19 (Homo sapiens, UniProt P33261). The data set can be described thus: CYP enzyme inhibition. The data set is classed as in vitro ADME.
Data set [2] can be described thus: Drug-drug interaction study Part 1: plasma PK after 20 mg mitapivat sulfate alone or with itraconazole. The data set is classed as in vivo, human. The settings on record: for Total exposure in the presence of itraconazole compared to dosing of mitapivat sulfate alone: 20 mg mitapivat sulfate, 200 mg itraconazole; for AUC(0-inf) / AUC(0-t) / Cmax: both sexes, human, healthy subjects; for AUC(0-inf): read-out: AUC0-inf, Geometric LSM; for AUC(0-t): read-out: AUC0-t, Geometric LSM; for Cmax: read-out: Cmax, Geometric LSM. On the procedure:
(§1) Twenty-eight (28) healthy, adult male and female (non-childbearing potential) subjects were enrolled in the study in total; 14 subjects in each study part (Parts 1 and 2). A minimum of 8 female subjects were enrolled in the study (i.e., a minimum of 4 female subjects per study part). Each subject participated in either Part 1 or Part 2, but not both.
On Day 1 of Treatment Period 1, a single oral dose of 20 mg mitapivat sulfate was administered. Serial blood samples for plasma assay of mitapivat concentrations and its CYP3A4 metabolite, referred to herein as the “Metabolite” (structure below),
[drawing 3] were collected from predose to 120 hours following administration of mitapivat sulfate. In Treatment Period 2, an oral dose of 200 mg itraconazole was administered once daily (QD) for 9 consecutive days (Day 1 through Day 9 of Treatment Period 2) with a single oral dose of 20 mg mitapivat sulfate coadministered on Day 5. Serial blood samples for plasma assay of mitapivat and the Metabolite concentrations were collected from predose to 120 hours following coadministration of mitapivat sulfate and itraconazole on Day 5.
In Treatment Period 1, mitapivat sulfate was administered orally with approximately 240 mL of water. In Treatment Period 2, on Days 1 to 4, itraconazole was administered alone immediately followed by approximately 220 mL of water, and on Day 5, itraconazole was administered first (no water) and was immediately followed by mitapivat sulfate administration with approximately 220 mL of water. Study drugs (mitapivat sulfate and itraconazole) were administered following an overnight fast of at least 10 hours on Day 1 of Treatment Period 1 (mitapivat sulfate only) and Day 5 of Treatment Period 2 (mitapivat sulfate and itraconazole), and subjects remained fasted for 4 hours after dosing. On all other dosing days, itraconazole was administered following a predose fast of at least 4 hours and subjects remained fasted for at least 2 hours after dosing.
Mitapivat sulfate (20 mg tablets) administered along with Itraconazole (also referred to as Sporanox®, 10 mg/mL oral solution, is considered as the test arm in this study. Mitapivat sulfate administered alone is considered as the reference arm in this study. In Period 1, a single oral dose of 20 mg mitapivat sulfate was administered orally with approximately 240 mL of water. In Period 2, on Day 5 (coadministration of itraconazole and mitapivat sulfate), 200 mg itraconazole (20 mL of 10 mg/mL oral solution) was administered first (no water) and was immediately followed by 20 mg mitapivat sulfate (1×20 mg tablet) administration with approximately 220 mL of water. On all other dosing days, itraconazole was administered alone immediately followed by approximately 220 mL of water. Each subject received 2 doses of mitapivat sulfate and 9 doses of itraconazole in Part 1.
(§2) In Parts 1 and 2, for mitapivat and the Metabolite, blood samples were obtained for all subjects to determine the plasma concentrations of mitapivat, and the Metabolite, before mitapivat sulfate dosing (0 hour) on Day 1 of Period 1 (Parts 1 and 2) and Day 5 (Part 1) or Day 8 (Part 2) of Period 2 at 0.5, 1, 1.5, 2, 3, 4, 5, 6, 8, 12, 16, 24, 48, 72, 96, and 120 hours postdose. Plasma concentrations of mitapivat and the Metabolite were determined using methods validated with respect to accuracy, precision, linearity, sensitivity, and specificity, with a lower limit of quantitation (LLOQ) of 0.5 ng/mL for both analytes. A noncompartmental PK approach was used to analyze individual plasma mitapivat and the Metabolite concentration time data (using Phoenix® WinNonlin® Version 7.0). The following PK parameters were calculated: AUC0-t, AUC0-inf, AUC0-24, AUC%extrap, Cmax, CL/F (mitapivat only), Tlast, Tmax, t½, and Vz/F (mitapivat only).
(§3) PK parameters were presented with a minimum of 3 significant figures. […]

Data set [3] can be described thus: Drug-drug interaction study Part 2: plasma PK after 50 mg mitapivat sulfate alone or with rifampin. The conditions noted are these: for Nominal time of peak arithmetic mean concentration: postdose; for Nominal time of peak arithmetic mean concentration / AUC(0-inf) / AUC(0-t) / Cmax: plasma; for Total exposure in the presence of rifampin compared to dosing of mitapivat sulfate alone: 50 mg mitapivat sulfate, 600 mg rifampin; for AUC(0-inf) / AUC(0-t) / Cmax: both sexes, human, healthy subjects; for AUC(0-inf): read-out: AUC0-inf, Geometric LSM; for AUC(0-t): read-out: AUC0-t, Geometric LSM; for Cmax: read-out: Cmax, Geometric LSM. The class given is in vivo, human. On the procedure: as §1
On Day 1 of Treatment Period 1, a single oral dose of 50 mg mitapivat sulfate was administered. Serial blood samples for plasma assay of mitapivat and the Metabolite concentrations were collected from predose to 120 hours following administration of mitapivat sulfate. In Treatment Period 2, an oral dose of 600 mg rifampin was administered QD for 12 consecutive days (Day 1 through Day 12 of Treatment Period 2) with a single oral dose of 50 mg mitapivat sulfate coadministered on Day 8. Serial blood samples for plasma assay of mitapivat sulfate and the Metabolite concentrations were collected from predose to 120 hours following coadministration of mitapivat and rifampin on Day 8.
In Part 2, study drugs were administered with approximately 240 mL of water on all dosing days including the coadministration of mitapivat sulfate and rifampin on Day 8 of Treatment Period 2. Mitapivat sulfate and rifampin was administered following an overnight fast of at least 10 hours on Day 1 of Treatment Period 1 (mitapivat sulfate only) and Day 8 of Treatment Period 2 (both mitapivat sulfate and rifampin) and subjects remained fasted for 4 hours after dosing. On all other dosing days, rifampin was administered following a predose fast of at least 4 hours and subjects remained fasted for at least 2 hours after dosing. There was a washout period of 7 days between the mitapivat sulfate dose in Treatment Period 1 and the first itraconazole (Part 1) or rifampin (Part 2) dose in Treatment Period 2. All study drugs were consumed within 5 minutes for both Part 1 and Part 2.
Mitapivat sulfate (50 mg tablets) administered along with Rifampin (also referred to as Rifadin®, 300 mg capsules) is considered as the test arm in this study. Mitapivat sulfate (50 mg tablets) administered alone is considered as the reference arm in this study.
In Period 1, a single oral dose of 50 mg mitapivat sulfate was administered orally. In Period 2, subjects were administered 600 mg rifampin (2×300 mg capsules) QD on Day 1 to Day 12 inclusive, with 50 mg mitapivat sulfate (1×50 mg tablet) coadministered on Day 8. Study drugs were administered with approximately 240 mL of water on all dosing days including the coadministration of mitapivat sulfate and rifampin on Day 8 of Period 2.
as §2, §3

In another data set the test system is CYP3A4/5. The data set can be described thus: CYP-enzyme phenotyping using human liver microsomes and recombinant CYP enzymes. The data set is classed as in vitro ADME.
Data set [4] concerns the target T1, CYP2C9. The description is as above. The class given is in vitro ADME. Details: CYP-enzyme phenotyping using human liver microsomes and recombinant CYP enzymes; from tissue; host or cells: human liver microsomes.
The mark [5] stands for this setting: plasma, 20 mg mitapivat sulfate oral alone (Reference).
[6] abbreviates: plasma, 20 mg mitapivat sulfate oral on Day 5 + 200 mg itraconazole QD Days 1-9 (Test).
Where [7] appears, read: 50 mg mitapivat sulfate coadministered with 600 mg rifampin (Period 2).
The mark [8] stands for this setting: 50 mg mitapivat sulfate given alone (Period 1).
Where [9] appears, read: 50 mg mitapivat sulfate oral alone (Reference).
The mark [10] stands for this setting: 50 mg mitapivat sulfate oral on Day 8 + 600 mg rifampin QD Days 1-12 (Test).

T1 sequence (P11712 whole entry): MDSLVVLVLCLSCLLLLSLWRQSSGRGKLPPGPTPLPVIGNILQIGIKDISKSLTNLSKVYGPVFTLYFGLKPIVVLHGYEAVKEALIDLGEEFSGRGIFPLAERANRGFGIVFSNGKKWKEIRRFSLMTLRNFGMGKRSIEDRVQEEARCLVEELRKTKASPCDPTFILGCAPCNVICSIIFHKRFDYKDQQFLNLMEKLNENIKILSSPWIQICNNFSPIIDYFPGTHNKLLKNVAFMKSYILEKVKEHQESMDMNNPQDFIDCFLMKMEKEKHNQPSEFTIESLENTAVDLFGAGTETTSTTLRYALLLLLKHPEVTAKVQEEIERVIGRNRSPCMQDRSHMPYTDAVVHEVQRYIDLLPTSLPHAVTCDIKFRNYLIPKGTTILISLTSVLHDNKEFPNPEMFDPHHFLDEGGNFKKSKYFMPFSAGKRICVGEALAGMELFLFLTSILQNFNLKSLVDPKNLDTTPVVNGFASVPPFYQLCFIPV
CYP2C19, sequence (P33261 whole entry): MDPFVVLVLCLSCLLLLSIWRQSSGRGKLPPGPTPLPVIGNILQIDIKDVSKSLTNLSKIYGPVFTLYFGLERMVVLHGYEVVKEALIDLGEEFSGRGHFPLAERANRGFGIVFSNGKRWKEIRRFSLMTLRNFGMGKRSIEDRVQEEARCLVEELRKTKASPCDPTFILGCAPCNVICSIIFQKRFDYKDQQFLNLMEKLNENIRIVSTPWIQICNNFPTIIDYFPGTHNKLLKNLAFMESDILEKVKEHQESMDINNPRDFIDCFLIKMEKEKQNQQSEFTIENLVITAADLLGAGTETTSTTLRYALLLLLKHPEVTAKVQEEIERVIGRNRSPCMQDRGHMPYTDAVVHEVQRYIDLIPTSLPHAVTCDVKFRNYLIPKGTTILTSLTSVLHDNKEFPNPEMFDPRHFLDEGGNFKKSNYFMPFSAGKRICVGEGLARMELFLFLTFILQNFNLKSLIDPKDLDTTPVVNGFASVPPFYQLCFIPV

`O=C(c1ccc(NS(=O)(=O)c2cccc3cccnc23)cc1)N1CCNCC1` [Metabolite]: the “Inhibition of CYP2C9” value on CYP2C9 [1] is “mild inhibitor”. The “Inhibition of CYP2C19” value on CYP2C19 is listed as “mild inhibitor”. For the same compound, in data set [2], the “Total exposure in the presence of itraconazole compared to dosing of mitapivat sulfate alone” value was “increased”. In addition, the AUC(0-inf) in data set [2] (setting [5]) amounted to 216 ng·h/mL; in data set [2] (setting [6]), 339 ng·h/mL; in data set [3] (setting [9]) it was 663 ng·h/mL; in data set [3] (setting [10]), 245 ng·h/mL. In addition, the AUC(0-t) in data set [2] (setting [5]) was 197 ng·h/mL; in data set [2] (setting [6]) it was 300 ng·h/mL; in data set [3] (setting [9]), 623 ng·h/mL; in data set [3] (setting [10]), 230 ng·h/mL. Moreover, the Cmax in data set [2] (setting [5]) is 18.8 ng/mL; in data set [2] (setting [6]) it was 9.11 ng/mL; in data set [3] (setting [9]), 53.8 ng/mL; in data set [3] (setting [10]) it was 64.5 ng/mL. Besides, the “Nominal time of peak arithmetic mean concentration” value in data set [3] (setting [7]) is roughly 1 h; in data set [3] (setting [8]), “approximately 2 hour”. Besides, in data set [3], the “Total exposure in the presence of rifampin compared to dosing of mitapivat sulfate alone” value was “decreased”.
For `O=C(c1ccc(NS(=O)(=O)c2cccc3cccnc23)cc1)N1CCN(CC2CC2)CC1` [Mitapivat, N-(4-(4-(cyclopropylmethyl)piperazine-1-carbonyl)phenyl)quinoline-8-sulfonamide], in the data set on CYP3A4/5, the “Share of metabolism by CYP3A4/5 (primarily metabolized by)” value was greater than 90%. Besides, the “Total exposure in the presence of itraconazole compared to dosing of mitapivat sulfate alone” value in data set [2] is on record as “increased”. The AUC(0-inf) in data set [2] (setting [5]) is 1940 ng·h/mL; in data set [2] (setting [6]), 9480 ng·h/mL; in data set [3] (setting [9]) it was 5680 ng·h/mL; in data set [3] (setting [10]), 496 ng·h/mL. For the same compound, the AUC(0-t) was found to be 1880 ng·h/mL in data set [2] (setting [5]), 8860 ng·h/mL in data set [2] (setting [6]), 5560 ng·h/mL in data set [3] (setting [9]) and 486 ng·h/mL in data set [3] (setting [10]). In addition, the Cmax in data set [2] (setting [5]) worked out at 412 ng/mL; in data set [2] (setting [6]), 704 ng/mL; in data set [3] (setting [9]), 1260 ng/mL; in data set [3] (setting [10]) it was 292 ng/mL. Besides, the “Delay in time to peak concentration” value in data set [2] (coadministered with itraconazole compared to administered alone, plasma) was “approximately 2 hours”. Further, the “Nominal time of peak arithmetic mean concentration” value in data set [3] (setting [7]) is roughly 0.5 h; in data set [3] (setting [8]), “approximately 1 hour”. Further, in data set [3], the “Total exposure in the presence of rifampin compared to dosing of mitapivat sulfate alone” value is recorded as “decreased”. Also, the “Contribution of CYP2C9 to metabolism” value at CYP2C9 [4] is recorded as “minor contributions”.
